Test results as given in PubChem BioAssay (NCI).
Where “and” joins values, the source holds several entries; their conditions need not be identical. Equal entries are not always repeated.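 Results reflect a 48-hour exposure of cells in 96-well plates to compound at five concentrations. GI50 = concentration required for 50% inhibition of growth. The concentration for full growth arrest is given as TGI.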

Columns and labels:
Assay in all cases: inhibition of tumour cell growth, NCI panel, 48 h
HL-60(TB) leukemia = system: HL-60(TB) leukemia
SNB-19 CNS = system: SNB-19 CNS
HT29 colon = system: HT29 colon
IGROV1 ovarian = system: IGROV1 ovarian
OVCAR-4 ovarian = system: OVCAR-4 ovarian
COLO 205 colon = system: COLO 205 colon
HCT-116 colon = system: HCT-116 colon
SNB-75 CNS = system: SNB-75 CNS
SF-268 CNS = system: SF-268 CNS
SK-MEL-5 melanoma = system: SK-MEL-5 melanoma

SMILES | GI50 (HL-60(TB) leukemia) [µM] | TGI (HL-60(TB) leukemia) [µM] | GI50 (SNB-19 CNS) [µM] | TGI (SNB-19 CNS) | GI50 (HT29 colon) [µM] | TGI (HT29 colon) | GI50 (IGROV1 ovarian) [µM] | TGI (IGROV1 ovarian) [µM] | GI50 (OVCAR-4 ovarian) [µM] | TGI (OVCAR-4 ovarian) | GI50 (COLO 205 colon) [µM] | TGI (COLO 205 colon) | GI50 (HCT-116 colon) [µM] | TGI (HCT-116 colon) | GI50 (SNB-75 CNS) [µM] | TGI (SNB-75 CNS) | GI50 (SF-268 CNS) [µM] | TGI (SF-268 CNS) | GI50 (SK-MEL-5 melanoma) [µM] | TGI (SK-MEL-5 melanoma)
C[C@H](NC(=O)[C@@H]1CSSC[C@@H](NC(=O)c2nc3ccccc3cc2O)C(=O)NCC(=O)N1C)c1ccccc1 | 1.2 | 4.78 | 7.24 | 19.4 µM | 1.13 | 3.35 µM | 2.59 | 12.4 | 7.95 | 18.3 µM | 0.963 | 2.34 µM | 1.63 | 5.15 µM | 7.62 | 43.1 µM | 0.43 | 11 µM | 0.582 | 3.82 µM
C=C(CCCCCCCCC)CC(=O)SCCNC(=O)CCNC(=O)C(O)C(C)(C)COP(=O)(O)OP(=O)(O)OCC1OC(n2cnc3c(N)ncnc32)C(O)C1OP(=O)(O)O (stereo unspecified) |  | > 90.9 |  | > 100 µM |  | > 100 µM |  | > 100 |  | > 100 µM |  | > 100 µM |  | > 100 µM |  | 58.8 µM |  | 15.3 µM |  | 52.2 µM
CCn1c(C(=O)N(C2CC2)C2CC2)cc2c3c(ncn3C)c(Nc3cc(C)n(C)n3)nc21 | > 100 | > 100 | > 100 | > 100 µM | > 100 | > 100 µM | 7.62 | > 100 | > 100 | > 100 µM | > 100 | > 100 µM | > 100 | > 100 µM | 1.26 | 32.5 µM | > 100 | > 100 µM | > 100 | > 100 µM
CC1OC(OCC2OC(Oc3c(-c4ccc(O)cc4)oc4cc(O)cc(O)c4c3=O)C(OC3OC(C)C(O)C(O)C3O)C(O)C2O)C(O)C(O)C1O (stereo unspecified) |  | > 100 |  | > 100 µM |  | > 100 µM |  | > 100 |  | > 90.2 µM |  | > 72.7 µM |  | > 100 µM |  | > 100 µM |  | > 100 µM |  | > 100 µM
CCCC(=O)Nc1cc(C(=O)N2C[C@@H]3C[C@]34C2=CC(=O)c2[nH]cc(C)c24)n(COC)c1 |  | 7.8 | 3.36 | 50 µM and 14.5 µM |  | 24.6 µM and 29 µM | 1.35 |  |  | 20.3 µM and 19.9 µM | 1.83 | 12.9 µM and 4.26 µM | 2.69 | 50 µM and 11.8 µM | 2.99 | 17.7 µM and 12.3 µM | 3.46 | 10.6 µM and 33.3 µM |  | 5.38 µM and 3.24 µM
COC(=O)C1C(O)CC(c2ccccn2)N(Cc2ccccc2)C1c1ccccn1 (stereo unspecified) |  | 65.1 |  | > 100 µM |  | > 100 µM |  | > 100 |  | > 100 µM |  | > 100 µM |  | > 100 µM |  | > 100 µM |  | > 100 µM |  | > 100 µM
COc1ccc(N2Cc3cnc(Nc4ccccc4)nc3N([C@@H]3CC[C@@H](O)C3)C2=O)cc1 | 4.45 | > 20.7 | 11.9 | > 25 µM | 3.57 | > 25 µM | 2.46 | > 18.5 | 2.43 | > 25 µM | 2.76 | > 25 µM | 2.84 | > 25 µM | 0.377 | 3.58 µM | 5.05 | > 25 µM | 9.25 | > 25 µM
CCCc1c(CC)c(=N)c2ccccc2n1C | > 100 | > 100 | 34.5 | > 100 µM | > 100 | > 100 µM | > 100 | > 100 | 20.1 | > 100 µM | > 100 | > 100 µM | > 100 | > 100 µM | 74.1 | > 100 µM | > 100 | > 100 µM | 24.9 | > 100 µM
CCCCS(=O)CCC(N)C(=O)O (stereo unspecified) |  | > 100 |  | > 100 µM |  | > 100 µM |  | > 100 |  | > 100 µM |  | > 100 µM |  | > 100 µM |  | > 100 µM |  | > 100 µM |  | > 100 µM
CCOC(=O)C1(Br)C(c2ccccc2)NC(=O)NC1(C)Br (stereo unspecified) |  | 46.4 |  | > 66 µM |  | > 100 µM |  | > 100 | 30.3 | > 100 µM |  | > 100 µM |  | > 100 µM |  | > 100 µM |  | > 100 µM |  | > 100 µM
CCOC(=O)C1=C(C(=O)c2ccc(C)cc2)C(c2cccc([N+](=O)[O-])c2)C(C(=O)c2ccc(C)cc2)=C(C(=O)OCC)N1 |  | 96.7 |  | 25.9 µM |  | 28.7 µM |  | 35.3 |  | 84.6 µM |  | 4.03 µM |  | 19.6 µM |  | > 100 µM |  | 46.1 µM |  | 33.1 µM
Cc1ccc(S(=O)(=O)NCCNC2=CC(=O)c3nc4ccccc4c4ccnc2c34)cc1 | 28.1 | > 100 | 13.8 | 33.9 µM | 32.5 | 79.1 µM | 19.9 | 51.9 | 26.8 | > 100 µM | 14.3 | 52.2 µM | 26.9 | > 100 µM | 18.3 | 41.3 µM | 19.1 | 52.3 µM | 14.6 | 33.9 µM
O=Cc1ccccc1OCCOc1cc(OCCOc2ccccc2C=O)c(OCCOc2ccccc2C=O)cc1OCCOc1ccccc1C=O |  | > 100 |  | > 82.9 µM |  | > 100 µM |  | > 100 |  | > 100 µM |  | > 100 µM |  | > 71.2 µM |  | 23.9 µM |  | > 100 µM |  | > 100 µM
CC1(C)C(=O)C(C)(C)C1=NN |  | > 100 |  | > 100 µM |  | > 100 µM |  | > 100 |  | > 100 µM |  | > 100 µM |  | > 100 µM |  | > 100 µM |  | > 100 µM |  | > 100 µM
COc1ccc(-c2nc3sc(-c4ccc(Cl)cc4)cn3n2)cc1 | > 50 | > 50 | 2.47 | > 50 µM | 2.96 | > 50 µM | 1.15 | 8.13 | 0.766 | 1.63 µM | 2.65 | > 50 µM | 1.21 | 3.48 µM | 1.61 | 6.85 µM | 48 | > 50 µM | 14 | > 50 µM
CC(=O)NNc1nc(C)c(C(=O)NNC(=O)C(=O)Nc2c(C)cccc2C)s1 |  | 77.6 |  | > 100 µM |  | > 100 µM |  | > 100 |  | > 100 µM |  | > 100 µM |  | > 100 µM |  | > 100 µM |  | > 100 µM |  | > 100 µM
CCCCCCCNc1nc(C(=O)OCC)ncc1-c1ccc(C(F)(F)F)cc1 | 30.4 | 88.8 | 33.4 | > 100 µM | 41.5 | > 100 µM | 24.7 | 70.9 | 13.8 | > 100 µM | 26.8 | 88.1 µM | 32 | > 100 µM | 41.7 | > 100 µM | 48.2 | > 100 µM | 20.6 | 51.9 µM
O=C1C(c2c[nH]c3ccccc23)=C(c2c[nH]c3ccccc23)C(=O)N1O | > 25 | > 25 | > 25 | > 25 µM | > 25 | > 25 µM | > 25 | > 25 | > 25 | > 25 µM | > 25 | > 25 µM | > 25 | > 25 µM | > 25 | > 25 µM | > 25 | > 25 µM | > 25 | > 25 µM
CCCn1c(SC)nc(COC(=O)NC)c1COC(=O)NC |  | > 100 |  | > 100 µM |  | > 100 µM |  | > 100 |  | > 100 µM |  | > 100 µM |  | > 100 µM |  | > 100 µM |  | > 100 µM |  | > 100 µM
